The results in this text go back to patent publication US20200239530A1, “COMPOUNDS AND METHODS OF MODULATING PROTEIN DEGRADATION” (Vividion Therapeutics, Inc., priority 2017, published 2020).

Molecules are shown by their SMILES.

Test [1] deals with T1, ANAPC7 Anaphase-promoting complex subunit 7 (Homo sapiens, UniProt Q9UJX3).
T1 construct: Cells were resuspended in cold PBS on ice and sonicated with a probe sonicator to achieve lysis; endogenous in cells
The experiment in a line: Cysteine liganding, probe competition. The class given is binding. Put shortly: (§1)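 Steps: sonicate cells in cold PBS; treat 5 mg/ml lysate with compound (25° C, 1 hr); add desthiobiotin iodoacetamide probe from a 10 mM stock (25° C, 1 hr); precipitate, reduce, alkylate, digest with trypsin; capture labelled peptides on streptavidin for analysis.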

Test [2] deals with T2, TRIM33 E3 ubiquitin-protein ligase TRIM33 (Homo sapiens, UniProt Q9UPN9).
T2 construct: Cells were resuspended in cold PBS on ice and sonicated with a probe sonicator to achieve lysis; endogenous in cells
T2 sequence (Q9UPN9 1-1127): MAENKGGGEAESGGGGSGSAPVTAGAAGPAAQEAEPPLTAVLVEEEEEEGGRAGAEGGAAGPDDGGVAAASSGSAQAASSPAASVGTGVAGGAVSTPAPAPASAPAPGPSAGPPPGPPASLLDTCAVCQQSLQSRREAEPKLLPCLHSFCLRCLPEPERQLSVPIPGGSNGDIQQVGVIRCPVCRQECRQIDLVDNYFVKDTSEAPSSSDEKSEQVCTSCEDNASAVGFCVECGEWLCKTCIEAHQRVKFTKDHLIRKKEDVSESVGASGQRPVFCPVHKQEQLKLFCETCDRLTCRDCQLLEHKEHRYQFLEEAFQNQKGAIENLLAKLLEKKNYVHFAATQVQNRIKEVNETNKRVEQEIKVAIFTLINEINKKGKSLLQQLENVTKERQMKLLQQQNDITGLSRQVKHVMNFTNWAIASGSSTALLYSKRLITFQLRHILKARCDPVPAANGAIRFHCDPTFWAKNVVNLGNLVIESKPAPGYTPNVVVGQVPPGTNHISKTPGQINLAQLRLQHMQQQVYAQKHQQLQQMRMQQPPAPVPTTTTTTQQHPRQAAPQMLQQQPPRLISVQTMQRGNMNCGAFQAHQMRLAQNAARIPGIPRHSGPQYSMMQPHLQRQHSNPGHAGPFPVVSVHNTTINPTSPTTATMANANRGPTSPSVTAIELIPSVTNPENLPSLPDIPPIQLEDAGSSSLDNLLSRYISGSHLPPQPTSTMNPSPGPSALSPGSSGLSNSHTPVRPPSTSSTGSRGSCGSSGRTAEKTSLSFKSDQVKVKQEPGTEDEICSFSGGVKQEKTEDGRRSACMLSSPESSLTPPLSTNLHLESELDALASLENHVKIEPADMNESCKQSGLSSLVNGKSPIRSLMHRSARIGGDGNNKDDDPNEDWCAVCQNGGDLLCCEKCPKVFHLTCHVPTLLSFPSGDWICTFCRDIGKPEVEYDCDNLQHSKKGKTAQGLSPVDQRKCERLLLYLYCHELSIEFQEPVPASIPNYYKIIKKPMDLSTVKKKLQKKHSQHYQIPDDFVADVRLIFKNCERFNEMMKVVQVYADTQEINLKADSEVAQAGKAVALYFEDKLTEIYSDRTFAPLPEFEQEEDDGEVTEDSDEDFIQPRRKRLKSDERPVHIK
The experiment in a line: Cysteine liganding, probe competition. The class given is binding. Put shortly: as §1

T1 sequence (Q9UJX3 whole entry, one chain of several): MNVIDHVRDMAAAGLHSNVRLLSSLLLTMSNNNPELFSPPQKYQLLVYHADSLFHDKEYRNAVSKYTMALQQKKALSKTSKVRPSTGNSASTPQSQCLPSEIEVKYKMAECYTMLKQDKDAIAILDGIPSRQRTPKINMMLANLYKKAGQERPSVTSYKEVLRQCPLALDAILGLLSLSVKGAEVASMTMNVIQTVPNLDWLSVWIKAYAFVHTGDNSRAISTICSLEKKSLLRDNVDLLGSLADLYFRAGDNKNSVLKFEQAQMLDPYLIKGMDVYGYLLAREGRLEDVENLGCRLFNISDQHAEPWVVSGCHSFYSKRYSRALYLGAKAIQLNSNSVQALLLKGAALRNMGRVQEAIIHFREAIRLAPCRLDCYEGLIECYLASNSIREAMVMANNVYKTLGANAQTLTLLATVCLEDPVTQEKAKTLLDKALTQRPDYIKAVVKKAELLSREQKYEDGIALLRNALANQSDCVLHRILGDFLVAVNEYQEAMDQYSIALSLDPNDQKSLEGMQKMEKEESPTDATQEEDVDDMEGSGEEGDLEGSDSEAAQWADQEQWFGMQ

Regarding `O=C(CCl)Nc1cc(C(F)(F)F)cc(C(F)(F)F)c1` [KBO3], in test [1] (uniprot Q9UJX3), the “100 Max” value is 60.9, the 100 ave is reported as 47.5, the “500 Max” value is recorded as 73.4 and the 500 ave worked out at 68.4. Besides, in test [2] (500 uM, UniProt Q9UPN9), the “KB03_500 uM_percent_inhibition” value came out at 86%. Also, the Liganded result in test [2] (TRIM33 Res# 153, uniprot Q9UPN9) is listed as “YES”.

In the case of `COc1ccc2c(c1)CCCN2C(=O)CCl` [KB02], the Liganded result is reported as “YES” in test [1] (ANAPC7 Res# 329, uniprot Q9UJX3) and “YES” in test [2] (TRIM33 Res# 582, uniprot Q9UPN9).
